Series [1] deals with Male Sprague-Dawley rats. Put plainly: tests of locomotor function (placing, grasping, righting reflex) and general behaviors. The format is in vivo, rat. Particulars: mean (SD). As to the method:
The effects of ODNs on locomotor function were examined using the following methods.^52 The animals were organized randomly into six groups: control (saline); 12.5 antisense ODN; 25 μg antisense ODN; 50 μg antisense ODN; 50 μg sense ODN; 50 μg missense ODN. The rats were pretreated with ODNs or saline in the manner described above. On the fifth day, 10 μl of saline was injected intrathecally for each rat. In some saline or antisense ODN (50 μg)-treated rats, fresh NMDA solution (1.25 μg/10 μl) was injected intrathecally. The following tests were performed with the experimenter blind to which group was treated with the agents: (1) Placing reflex: The rat was held with the hind limbs slightly lower than the forelimbs, and the dorsal surfaces of the hind paws were brought into contact with the edge of a table. The experimenter recorded whether the hind paws were placed on the table surface reflexively; (2) Grasping reflex: The rat was placed on a wire grid and the experimenter recorded whether the hind paws grasped the wire on contact; (3) Righting reflex: The rat was placed on its back on a flat surface and the experimenter noted whether it immediately assumed the normal upright position. […] In addition, the rat general behaviors including spontaneous activity were observed.

In series [2] the test system is Male Sprague-Dawley rats. Briefly: blood pressure and heart rate during isoflurane anesthesia. In kind it is in vivo, rat. From the text: On the fifth day after saline or ODNs injection, each rat was placed in a clear plastic cone and anesthetized with 5% isoflurane in oxygen for three to five minutes. After tracheostomy, the trachea of each animal was intubated with a 16-gauge polyethylene catheter. The inspired isoflurane concentration was reduced to 2%, and the animals breathed spontaneously until cannulation of a carotid artery and a jugular vein with PE-50 tubing was accomplished. The isoflurane concentration was decreased further to 1.5%, and ventilation was controlled by a Harvard Animal Respirator (Harvard Apparatus, South Natick, Mass.) adjusted according to the measurement of arterial blood gases to maintain normal partial pressure of oxygen (PO2=91-94 mmHg), partial pressure of carbon dioxide (PCO2=33-41 mmHg) and pH (7.4-7.44). Electrocardiography and systolic and diastolic blood pressure were monitored using a Grass Polygraph (Astroumed Grass, Quincy, Mass.) and Gould Pressure Transducer (Gould, Cleveland, Ohio). Rectal temperature was maintained between 36.5 and 37.5° C. by use of a heating blanket and warming lights.
In some saline-treated rats, after initial baseline MAC determination, NMDA at the dose of 1.25 μg^38 or saline was injected intrathecally in a volume of 10 μl saline, followed by an injection of 10 μl saline to flush the catheter. Fresh NMDA solution was prepared for each experiment. […] At this isoflurane concentration, 10 min after the intrathecal injection of NMDA, the animals were tested again for reactivity to tail clamp. The concentration of isoflurane was increased, and response to tail clamp was checked every 12-15 min thereafter until a negative response was achieved. In some antisense ODN (50 μg)-treated rats, after initial MAC determination, NMDA or saline was also administered intrathecally. The MAC for isoflurane was again determined following the aforementioned procedures.

Series [3] relates to Male Sprague-Dawley rats. Put plainly: formalin-induced pain behaviors (flinches and shakes). The format is in vivo, rat. Particulars: for reduction of the number of flinches and shakes evoked by formalin: 50 μg intrathecal. As to the method:
(§1) All of the experiments were carried out with the approval of the Animal Care Committee at the Johns Hopkins University. Thirty-eight male Sprague-Dawley rats (250-300 g, Hilltop Laboratory Animals, Scottsdale, Pa., USA) were implanted with an intrathecal PE-10 catheter at the rostral level of the spinal cord lumbar enlargement according to the method described by Yaksh and Rudy. After 4 to 7 days of recovery, they were intrathecally injected with one of the following agents every 24 hours for 4 consecutive days: saline (10 μl, n=6), PSD-95 antisense oligodeoxynucleotide (ODN) (12.5 μg/10 μl, n=6; 25 μg/10 μl, n=6; 50 μg/10 μl, n=6), sense ODN (50 μg/10 μl, n=5) or missense ODN (50 μg/10 μl, n=9). On the fifth day, formalin (4%, 100 μl) was injected into one of the hindpaws. The number of flinches and shakes of the injected paw was assessed for 1 hour. The observational session was divided into phasic (0-10 min) and tonic (10-60 min) periods. Rats were sacrificed two hours after formalin injection and their lumbar spinal cords were harvested for c-fos immunohistochemistry.

Another series concerns c-fos. Put plainly: c-fos immunohistochemistry in lumbar spinal cord after formalin. In kind it is in vivo, rat. How it is done:
as §1

For a further series, the system named is rats. Briefly: rat neuropathic pain model, unilateral L5 spinal nerve ligation, hind paw withdrawal. In kind it is in vivo. The following applies: 50 μg/10 μl intrathecal every 24 h for 4 days. As to the method: The effect of the deficiency of PSD-95/SAP90 on mechanical and thermal hyperalgesia in a rat neuropathic pain model was observed. The antisense oligonucleotide (OND) specifically against PSD-95/SAP90 was employed to reduce the expression of PSD-95/SAP90 in spinal cord. The rats were injected intrathecally with saline (10 μl), antisense OND (50 μg/10 μl) or sense OND (50 μg/10 μl) every 24 h for 4 days. The unilateral L5 spinal nerve was ligated. Hind paw withdrawal response to mechanical or heat stimuli was conducted 1 day prior to the surgery and at 3, 5, 7 and 9 days postoperatively. In the saline-treated group, mechanical and thermal hyperalgesia developed within 3 days and persisted for 9 days or longer. […] PSD-95/SAP90 is likely involved in the molecular mechanism of the production of hyperalgesia in neuropathic pain triggered via NMDA receptor activation.

[4] abbreviates: 50 μg, count of normal reflexes in five trials.
Where [5] appears, read: 12.5 μg, count of normal reflexes in five trials.
[6] abbreviates: 25 μg, count of normal reflexes in five trials.
Where [7] appears, read: 50 μg AS + 1.25 μg NMDA, five trials.
Where [8] appears, read: pretreated with 50 μg antisense ODN, intrathecal NMDA 1.25 μg.

As for “5′-AAGCCCTTGTTCCCATTT-3′ (DNA, backbone and methylation of C not given here; listed as Rattus rattus) [MS, missense OND control, reference compound]”, in the series on Male Sprague-Dawley rats [1] (setting [4]), the Grasping is 5 (0), the Placing is on record as 5 (0) and the Righting is reported as 5 (0). Further, in the series on Male Sprague-Dawley rats [2] (50 μg, before the tail clamp), the “BP Diastolic” value was 105.75 ± 11.40 mmHg, the “BP Systolic” value is listed as 121.33 ± 15.84 mmHg and the Heart rate is reported as 524.70 ± 44.90 beats/min. For the same substance, the “difference in the number of flinches and shakes vs saline-treated group” value in the series with Male Sprague-Dawley rats [3] (50 μg/10 μl, either period) was “did not show any significant difference”.
“5′-TGTGATCTCCTCATACTC-3′ (DNA, backbone and methylation of C not given here; listed as Rattus rattus) [antisense oligonucletide corresponding to the PDZ domain nucleotides 241 to 258 of rat PSD-95/SAP90 mRNA]”: in the series with Male Sprague-Dawley rats [1] (setting [5]), the Grasping is 5 (0), the Placing is reported as 5 (0) and the Righting is 5 (0). In addition, in the series with Male Sprague-Dawley rats [1] (setting [6]), the Grasping is given as 5 (0), the Placing was 5 (0) and the Righting is listed as 5 (0). In the series on Male Sprague-Dawley rats [1] (setting [7]), the Grasping is on record as 4.83 (0.41), the Placing is given as 4.83 (0.41) and the Righting is given as 4.83 (0.41). In addition, in the series with Male Sprague-Dawley rats [1] (setting [4]), the Grasping was 4.67 (0.52), the Placing was 4.83 (0.41) and the Righting was 4.83 (0.41). Further, in the series with Male Sprague-Dawley rats [2] (12.5 μg, before the tail clamp), the “BP Diastolic” value amounted to 112.58 ± 7.14 mmHg, the “BP Systolic” value is 127.58 ± 11.72 mmHg and the Heart rate came to 534.80 ± 29.13 beats/min. Moreover, in the series with Male Sprague-Dawley rats [2] (25 μg, before the tail clamp), the “BP Diastolic” value is 105.83 ± 7.89 mmHg, the “BP Systolic” value was 122.75 ± 10.81 mmHg and the Heart rate is 541.20 ± 16.70 beats/min. Further, in the series with Male Sprague-Dawley rats [2] (50 μg, before the tail clamp), the “BP Diastolic” value was determined as 112.50 ± 11.20 mmHg, the “BP Systolic” value was 129.58 ± 11.73 mmHg and the Heart rate is on record as 514.20 ± 62.20 beats/min. In addition, in the series with Male Sprague-Dawley rats [2] (setting [8]), the Heart rate came to 553±17 beats/min, the diastolic blood pressure is 117.00±6.35 mmHg and the systolic blood pressure turned out to be 138.00±5.77 mmHg. Further, the “reduction of the number of flinches and shakes evoked by formalin” value in the series on Male Sprague-Dawley rats [3] (phasic period (0-10 min)) is “but not in the phasic period”. In addition, the “reduction of the number of flinches and shakes evoked by formalin” value in the series with Male Sprague-Dawley rats [3] (tonic period (10-60 min)) was 59%. The “changes in the number of flinches and shakes vs saline-treated group” value in the series with Male Sprague-Dawley rats [3] (12.5 and 25 μg, phasic and tonic periods) was “failed to produce significant changes”. Besides, the “decrease of the number of Fos-like immunoreactive neurons per section” value in the series with c-fos (50 μg intrathecal) stood at 48%. Further, the “changes in the number of Fos-like immunoreactive neurons vs saline-treated group” value in the series on c-fos (12.5 and 25 μg) is given as “failed to produce significant changes”. In addition, in the series on rats, the “onset of the mechanical hyperalgesia” value was “significant delay” and the “onset of the thermal hyperalgesia” value was “significant delay”.

Values taken from patent publication US8148347B2, “Inhibition of interaction of PSD93 and PSDS95 with nNOS and NMDA receptors” (The Johns Hopkins University, priority 2000, dated 2012).
